{
  "source": "paper PMC7830900",
  "about": "“Cinnamoyl Sucrose Esters as Alpha Glucosidase Inhibitors for the Treatment of Diabetes” (Molecules, 2021)",
  "key": {"[1]": {"target": "T1, porcine pancreatic α-amylase (Sus scrofa, UniProt P00690)", "T1 sequence (P00690 16-511)": "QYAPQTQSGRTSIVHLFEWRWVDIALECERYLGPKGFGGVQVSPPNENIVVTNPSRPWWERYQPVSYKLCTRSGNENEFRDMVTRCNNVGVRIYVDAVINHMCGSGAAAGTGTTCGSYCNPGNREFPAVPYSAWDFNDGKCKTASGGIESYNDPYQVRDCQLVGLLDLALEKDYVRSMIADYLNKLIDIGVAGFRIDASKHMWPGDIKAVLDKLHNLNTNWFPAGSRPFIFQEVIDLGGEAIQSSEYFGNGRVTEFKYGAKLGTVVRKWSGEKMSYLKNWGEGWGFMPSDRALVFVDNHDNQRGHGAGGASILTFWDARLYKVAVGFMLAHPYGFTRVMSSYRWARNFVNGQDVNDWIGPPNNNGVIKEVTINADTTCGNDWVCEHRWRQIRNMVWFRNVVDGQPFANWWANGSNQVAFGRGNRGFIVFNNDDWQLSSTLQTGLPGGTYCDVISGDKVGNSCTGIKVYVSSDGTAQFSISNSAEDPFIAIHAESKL", "experiment": "In vitro α-amylase inhibition assay (starch/DNSA)", "type": "biochemical", "parameters": "inhibition: dose or concentration left out as unconfirmed", "details": "for IC50: dose-response 0–25 µg/mL", "method": "α-amylase inhibition was tested using previously reported methods […] The tubes were then incubated at 37 °C for 10 min. Next, 450 µL of 0.5% starch solution was added and the tubes were incubated for a further 20 min at 37 °C. Finally, 500 µL of Dinitro Salicylic Acid (DNSA) reagent was added and the tubes were placed in a boiling water bath for 15 min. The absorbance of the tubes was recorded at 540 nm and the % inhibition calculated using the same formula as for α-glucosidase, % inhibition = ΔAbscontrol−ΔAbssample/ΔAbscontrol × 100\nAll measurements were performed in triplicates and the values."}, "[2]": {"target": "yeast α-glucosidase (Saccharomyces cerevisiae, UniProt P53341)", "sequence (P53341 whole entry)": "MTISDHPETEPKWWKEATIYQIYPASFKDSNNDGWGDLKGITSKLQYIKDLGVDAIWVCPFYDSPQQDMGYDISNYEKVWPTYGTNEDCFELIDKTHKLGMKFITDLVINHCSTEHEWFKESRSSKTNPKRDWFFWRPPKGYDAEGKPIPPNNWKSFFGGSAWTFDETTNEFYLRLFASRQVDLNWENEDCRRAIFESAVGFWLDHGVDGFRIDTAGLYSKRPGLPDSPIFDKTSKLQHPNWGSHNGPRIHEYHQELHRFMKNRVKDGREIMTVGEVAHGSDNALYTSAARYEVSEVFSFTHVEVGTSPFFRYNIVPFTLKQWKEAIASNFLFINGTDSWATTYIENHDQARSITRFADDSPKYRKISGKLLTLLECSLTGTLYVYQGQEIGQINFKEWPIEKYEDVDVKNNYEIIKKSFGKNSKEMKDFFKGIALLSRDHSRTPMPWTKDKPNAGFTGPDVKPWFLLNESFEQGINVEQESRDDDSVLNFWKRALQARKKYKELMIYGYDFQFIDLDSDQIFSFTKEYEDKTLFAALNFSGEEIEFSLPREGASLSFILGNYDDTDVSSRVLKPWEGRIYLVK", "experiment": "In vitro α-glucosidase inhibition assay (PNPG substrate)", "type": "biochemical", "parameters": "inhibition: dose or concentration left out as unconfirmed", "details": "for IC50: dose-response 0–25 µg/mL", "method": "α-Glucosidase inhibition was tested according to previously reported methods with some modifications. […] Fifty microliters of yeast α-glucosidase enzyme solution (0.5 U/mL in phosphate buffer) was added to the wells. The plate was incubated at 37 °C for 15 min. Next, 25 µL of 2.5 mM PNPG (4-nitrophenyl α-D-glucopyranoside) substrate solution (in phosphate buffer) was added. The microplate was incubated at 37 °C for another 15 min. The absorbance was then measured using a microplate reader at 405 nm. The percentage inhibition was calculated using the formula: % inhibition = ΔAbscontrol−ΔAbssample/ΔAbscontrol × 100\nAll measurements were performed in triplicates and the values. The IC50 values for selected CSEs were calculated by plotting a dose-response curve for a range of concentrations of the CSEs (0–25 µg/mL) for the selected CSEs (data not shown) and regression analysis was done using Graphpad Prism software using the in-built function."}, "[3]": {"test_system": "STZ-treated mice", "parameters": "method as in earlier work", "details": "STZ-treated mice compared to control (starch only) mice; cited from earlier work"}, "[4]": {"details": "25 μg/mL, mean ± SD, n = 3, less than 5% inhibition = No Significant Activity"}},
  "data": [
    {"molecule": "C[C@H]1O[C@H](O[C@H]2[C@H](O)[C@@H](O)[C@@H](O[C@H]3[C@H](O)[C@@H](O)C(O)O[C@@H]3CO)O[C@@H]2CO)[C@H](O)[C@@H](O)[C@@H]1N[C@H]1C=C(CO)[C@@H](O)[C@H](O)[C@H]1O", "note": "(stereo partly shown) [acarbose, reference compound]", "values": [
      {"measurement": "inhibition at 25 µg/mL", "setting": "[1]; read-out: % α-amylase inhibition", "value": "93 ± 2", "unit": "%"},
      {"measurement": "inhibition", "setting": "[2]", "value": "27 ± 4", "unit": "%"}
    ]},
    {"molecule": "O=C(C=Cc1ccccc1)OCC1OC(CO)(OC2OC(CO)C(O)C(OC(=O)C=Cc3ccccc3)C2O)C(OC(=O)C=Cc2ccccc2)C1OC(=O)C=Cc1ccccc1", "note": "(stereo not shown) [CSE 9]", "values": [
      {"measurement": "inhibition", "setting": "[1]", "value": "99 ± 1", "unit": "%"},
      {"measurement": "α-amylase IC50, fold less than acarbose", "setting": "[1]", "value": "five-fold less"},
      {"measurement": "IC50", "setting": "[1]; mean ± SD, n = 3", "value": "0.8 ± 0.1", "unit": "µM"},
      {"measurement": "inhibition", "setting": "[2]", "value": "74 ± 9", "unit": "%"},
      {"measurement": "α-glucosidase IC50, fold lower than acarbose", "setting": "[2]", "value": "over 36 fold"},
      {"measurement": "IC50", "setting": "[2]; mean ± SD, n = 3", "value": "9 ± 3", "unit": "µM"}
    ]},
    {"molecule": "CC(=O)O[C@@H]1[C@H]2OC(C)(C)OC[C@@]3(O[C@H]2O[C@@H]2COC(C)(C)O[C@@H]12)O[C@H](COC(=O)/C=C/c1ccccc1)[C@@H](OC(C)=O)[C@@H]3OC(=O)/C=C/c1ccccc1", "note": "[CSE 6]", "values": [
      {"measurement": "inhibition", "setting": "[1]", "value": "14 ± 4", "unit": "%"},
      {"measurement": "inhibition", "setting": "[2]", "value": "46 ± 3", "unit": "%"}
    ]},
    {"molecule": "CC1(C)OCC2OC3OC4(COC(C)(C)OC3C(OC(=O)C=Cc3ccccc3)C2O1)OC(COC(=O)C=Cc1ccccc1)C(OC(=O)C=Cc1ccccc1)C4OC(=O)C=Cc1ccccc1", "note": "(stereo not shown) [CSE 5]", "values": [
      {"measurement": "inhibition", "setting": "[1]", "value": "98 ± 2", "unit": "%"},
      {"measurement": "α-amylase IC50, fold less than acarbose", "setting": "[1]", "value": "five-fold less"},
      {"measurement": "IC50", "setting": "[1]; mean ± SD, n = 3", "value": "1 ± 0.2", "unit": "µM"},
      {"measurement": "inhibition", "setting": "[2]", "value": "77 ± 5", "unit": "%"},
      {"measurement": "α-glucosidase IC50, fold lower than acarbose", "setting": "[2]", "value": "over 36 fold"},
      {"measurement": "IC50", "setting": "[2]; mean ± SD, n = 3", "value": "9 ± 3", "unit": "µM"}
    ]},
    {"molecule": "CC1(C)OC[C@@]2(O[C@H]3O[C@@H]4COC(C)(C)O[C@H]4[C@H](O)[C@H]3O1)O[C@H](COC(=O)/C=C/c1ccccc1)[C@@H](O)[C@@H]2O", "note": "[CSE 2]", "values": [
      {"measurement": "% α-amylase inhibition", "setting": "[1]; [4]", "value": "did not show significant inhibition activity"},
      {"measurement": "% α-glucosidase inhibition", "setting": "[2]; [4]", "value": "did not show significant inhibition activity"}
    ]},
    {"molecule": "COc1cc(/C=C/C(=O)OC[C@H]2O[C@@](CO)(O[C@H]3O[C@H](CO)[C@@H](O)[C@H](OC(=O)/C=C/c4ccc(O)c(OC)c4)[C@H]3O)[C@@H](OC(=O)/C=C/c3ccc(O)c(OC)c3)[C@@H]2OC(=O)/C=C/c2ccc(O)c(OC)c2)ccc1O", "note": "[FSE 1]", "values": [
      {"measurement": "blood glucose excursion", "setting": "[3]", "value": "significantly reduced blood glucose excursion"}
    ]},
    {"molecule": "CC1(C)OC[C@@]2(O[C@H]3O[C@@H]4COC(C)(C)O[C@H]4[C@H](O)[C@H]3O1)O[C@H](COC(=O)/C=C/c1ccccc1)[C@@H](O)[C@@H]2OC(=O)/C=C/c1ccccc1", "note": "[CSE 3]", "values": [
      {"measurement": "inhibition", "setting": "[1]", "value": "9 ± 5", "unit": "%"},
      {"measurement": "inhibition", "setting": "[2]", "value": "35 ± 5", "unit": "%"}
    ]},
    {"molecule": "CC1(C)OC[C@@]2(O[C@H]3O[C@@H]4COC(C)(C)O[C@H]4[C@H](O)[C@H]3O1)O[C@H](COC(=O)/C=C/c1ccccc1)[C@@H](OC(=O)/C=C/c1ccccc1)[C@@H]2OC(=O)/C=C/c1ccccc1", "note": "[CSE 4]", "values": [
      {"measurement": "inhibition", "setting": "[1]", "value": "8 ± 4", "unit": "%"},
      {"measurement": "inhibition", "setting": "[2]", "value": "32 ± 3", "unit": "%"}
    ]},
    {"molecule": "O=C(/C=C/c1ccccc1)OC[C@H]1O[C@@](CO)(O[C@H]2O[C@H](CO)[C@@H](O)[C@H](O)[C@H]2O)[C@@H](OC(=O)/C=C/c2ccccc2)[C@@H]1OC(=O)/C=C/c1ccccc1", "note": "[CSE 8]", "values": [
      {"measurement": "inhibition", "setting": "[1]", "value": "16 ± 2", "unit": "%"},
      {"measurement": "inhibition", "setting": "[2]", "value": "34 ± 4", "unit": "%"},
      {"measurement": "% α-glucosidase inhibition relative to % α-amylase inhibition", "setting": "[2]; 25 μg/mL, selectivity α-glucosidase over α-amylase", "value": "higher inhibition of α-glucosidase than α-amylase"}
    ]},
    {"molecule": "CC(=O)O[C@@H]1[C@H]2OC(C)(C)OC[C@@]3(O[C@H]2O[C@@H]2COC(C)(C)O[C@@H]12)O[C@H](COC(=O)/C=C/c1ccccc1)[C@@H](OC(=O)/C=C/c1ccccc1)[C@@H]3OC(=O)/C=C/c1ccccc1", "note": "[CSE 7]", "values": [
      {"measurement": "inhibition", "setting": "[1]", "value": "13 ± 7", "unit": "%"},
      {"measurement": "inhibition", "setting": "[2]", "value": "46 ± 2", "unit": "%"}
    ]}
  ]
}
